Patent US7338956B2, “Acylamino-substituted heteroaromatic compounds and their use as pharmaceuticals” (Sanofi-Aventis Deutschland GmbH, priority 2002, dated 2008)

Test system: eNOS promoter
Experiment: Determination of activation of eNOS transcription (eNOS promoter firefly luciferase reporter gene assay)
Type: cell-based
Conditions: human endothelial cell line stable transfected with eNOS promoter-luciferase construct; 18 h incubation; EC50 determined graphically; read-out: EC50 values of transcription induction ratio
Protocol: Activation of eNOS transcription was determined as described in detail in Li et al., “Activation of protein kinase C alpha and/or epsilon enhances transcription of the human endothelial nitric oxide synthase gene”, Mol. Pharmacol. 53 (1998) 630 (the content of which is incorporated herein by reference). Briefly, a 3.5 kB long fragment 5′ of the starting codon of the eNOS gene was cloned, sequenced and cloned in firefly luciferase expression plasmids to monitor activation of the eNOS promoter by reporter gene activity. A human endothelial cell line stable transfected and expressing this promoter-reporter construct was used for compound testing. Cells were incubated for 18 h with compounds.
All compounds were dissolved in sterile dimethyl sulfoxide (DMSO). A final concentration of 0.5% DMSO in complete medium was allowed. Induction of reporter gene expression in these cells was measured using a standard luciferase assay system (Promega, Cat. No E150) according to the manufacturer's instructions. Luciferase induction in cells incubated with compounds were compared to those incubated with solvent alone. The ratio of both activities (transcription induction ratio, TIR) was plotted as a function of compound concentration. […] EC50 values of transcription induction ratios as a function of compound concentration were determined graphically.

| Compound | EC50 [µM] |
| --- | --- |
| O=C(Nc1nc2cc(Cl)ccc2s1)c1ccc(F)cc1 [Example 123, N-(5-Chlorobenzothiazol-2-yl)-4-fluorobenzamide] | 12 |
| O=C(Nc1nc2cccc(Cl)c2s1)c1ccc(F)cc1 [Example 124, N-(7-Chlorobenzothiazol-2-yl)-4-fluorobenzamide] | < 0.1 |
